Measured values taken from US20050143453A1, “Selective preventing and therapeutic agents for progressive lesion after organic damage” (priority 2000, published 2005).
Read-outs that look alike come from different tables or passages of the source.

Assays:
[1] = tested on: induction of effector macrophage by contact of human PBMC with mitomycin-treated human PBMC (allo-MLC); assay: SPFC production by allo-MLC stimulation (Test Example 2); type: cell-based
[2] = tested on: obstruction-released kidney of male SD rats; assay: Obstruction release model after complete obstruction of unilateral ureter for 14 days (UUO/Release, Test Example 3); type: in vivo, rat; parameters: key to Suppressive Effect to Glomerular Lesion / Suppressive Effect to Lesion of Tubulointerstitial Tissue: ∘: available; Δ: somewhat available; x: not available
Experimental: Obstruction Release Model after Complete Obstruction of Unilateral Ureter for 14 Days
Experimental models were prepared by a method devised and established by Ishibashi (Michio Ishibashi, et al.: The Japanese Journal of Nephrology, 42: 248, 2000) using male SD rats of 8-9 weeks age and about 280 g. Thus, the rat was laparotomized under anesthetization with ether and ureter was ligated with 7-0 Nylon at the height of the margin of lower pole of left kidney to close the abdomen. On the 14th day after obstruction, the obstruction was released and urinary passage was reconstructed using a cuff. Thus, after 14 days, the part of ligated obstructed ureter was resected, a polyethylene tube of 25 gages (manufactured by Nippon Sherwood) was used as a cuff and inserted into and retained at the lumen from the cut end of the lower normal ureter, then the cuff was also retained in the expanded upper ureter and each of them was ligated and fixed by 7-0 Nylon to reconstruct the urinary passage. At the same time, the right kidney at the opposite side was excised. After the release of the obstruction, body weight was measured, blood was collected on the 2nd day, 5th day and 7th day from the release to measure serum creatinine, then the rat was sacrificed under anesthetization and the left obstruction-released kidney was excised. With regard to the excised kidney, there were carried out measurement of weight of the kidney and pathological test for the kidney.
An in vivo biological test was carried out for the γ-lactone derivatives according to the present invention using the above models. With regard to the test compound, bulk powder of the test compound was dissolved in an aseptic physiological saline together with gum arabic and the final concentration of gum arabic was 5%(vol/vol). The concentration of the test compound 30 mg/ml was suspended in 5% gum arabic-saline solution. The preparation was subcutaneously injected at the dose of 30 mg/kg every day throughout the experiment. With regard to the test compound, there were used (9-1), (4-2) and (7-3) as the compounds of group I suppressing the SPFC production by allo-MLC stimulation, i.e., the compounds which selectively suppress the induction of effector macrophage in the presence of allo-MLC while there was used (3-2) as the compound of group II suppressing the SPFC production by LPS stimulation, i.e., the compounds which selectively suppress the induction of effector macrophage in the presence of LPS.
In the Table, “functional classification” of the compound means the above group I, group II and group III. “Compound” means the compound bearing each of the above-mentioned compound numbers. The fact whether glomerular lesion was suppressed was judged by the ameriolation of the lesions such as thickness of wall of Bowman's capsule, hyperplasia of mesangial cells and glomerular sclerosis. The fact whether lesion of tubulointerstitial tissue was suppressed was judged by the ameriolation of the lesions such as thickness of basement membrane of tubules, cellular infiltration and fibrosis of interstitial tissue. In the table, “control” is the result when the same test as above was carried out using 5% gum arabic only which is a solvent.
In order to further confirm whether the preventive and therapeutic effect of the γ-lactone derivatives of the present invention to the target cell damage is selective, (7-3) of the group I and (6-1) of the group II were used as test compounds and they were subcutaneously injected at the dose of 30 mg/kg every day and compared with the control group. With regard to the control group, only 5% gum arabic which is a solvent was used and the same test as above was carried out.

[3] = tested on: kidney of chronic puromycin nephrosis rat; assay: Puromycin chronic nephrosis model in rat (CPN, Test Example 4); type: in vivo
Experimental: Evaluation Using Puromycin Chronic Nephrosis Model in Rat
Male SD rat of 8 weeks age of about 250 g was used and […] of puromycin were intravenously administered once according to a method of Diamond, et al. (J. R. Diamond, I. Pesek, S. Ruggeri, M. J. Karnovsky: Essential fatty acid deficiency during acute puromycin nephrosis ameliorates late renal injury. Am. J. Physiol, 257: F798˜F807, 1989). There was induced a chronic puromycin nephrosis rat where albuminuria increased from about tenth to twelfth week. After eighth week from administration of puromycin, each of compound (9-1) and compound (6-1) was subcutaneously injected at the dose of 30 mg/kg/day everyday until the 22nd week.
As a functional evaluation of kidney, albumin in urine was measured every week using a kit for the measurement of albumin. On the 22nd week, the rat was killed and anatomized to observe functional and morphological changes of kidney.

[4] = Acute and chronic toxicity tests (Test Example 5); type: in vivo; details: subcutaneously 90 mg/kg/day for ten days
Experimental: Acute and Chronic Toxicity Tests
Toxicity test of benzyl 2-chloro-5-oxotetrahydrofuran-2-carboxylate represented by the formula (6-1) manufactured in Example 8 and ethyl 2-ketoglutarate represented by the formula (9-1) was carried out.

[5] = tested on: lesion of tubulointerstitial tissue / glomerulus; assay: Suppression of renal lesion in vivo by active metabolites (model not stated)
[6] = 30 mg/kg subcutaneously every day, Table 2
[7] = Experimental Model of Rat: UUO/Release
[8] = 30 mg/kg/day subcutaneously from 8th to 22nd week after puromycin

CCOC(=O)C(=O)CCC(=O)O [(9-1), ethyl 2-ketoglutarate]
IC50 ([1]; Table 5, read-out: Inhibiting Concentration for SPEC Production by allo-MLC Stimulation (μM: IC50)): 0.01 µM | IC50 ([1]; human PBMC with mitomycin-treated human PBMC, incubated 6 days, Table 1, read-out: SPFC Production Inhibiting Concentration by all-MLC Stimulation (μM: IC50)): 0.01 µM | Functional Classification ([1]; selectivity allo-MLC versus LPS stimulation, Table 1): Group I | selectivity of the suppressive effect on renal lesions ([2]; 30 mg/kg subcutaneously every day): selective suppressive effect | Rate of Cases where Glomerular Lesion was Suppressed [2, 6]: 0% (0/4) | Rate of Cases where tubulointerstitial Lesion was Suppressed [2, 6]: 100% (4/4) | Serum Creatinine level (mg/dl) on the 7th Day from Release of Obstruction [2, 6]: 2.0 ± 0.2 mg/dL | Weight of Kidney (g) on the 7th Day from Release of Obstruction [2, 6]: 3.01 ± 0.56 g | Suppressive Effect to Glomerular Lesion [2, 7]: x | Suppressive Effect to Lesion of Tubulointerstitial Tissue [2, 7]: ∘ | suppression of lesion of tubulointerstitial tissues ([3]; 30 mg/kg/day subcutaneously): well suppressed | Rate of Cases where Glomerular Lesion was Suppressed [3, 8]: 50% (3/6) | Rate of Cases where Lesion of Tubulointerstitial Tissue was Suppressed [3, 8]: 83% (5/6) | toxicity finding [4]: an increase in weights of the liver and the spleen in a light degree | suppression of lesion in tubulointerstitial tissue in vivo [5]: shows an activity for suppressing
